According to patent publication US5428038A, “Benzopyranones, a method for producing them and uses therefor” (Dr. Willmar Schwabe GmbH & Co., priority 1991, dated 1995):

Key:
[1] = test system: NMDA-induced death; assay: NMDA test (25 mg/kg i.v.), prevention of NMDA-induced death (neuroprotective efficacy); assay type: in vivo, male NMRI mice; conditions: Mus musculus, po, NMDA 25 mg/kg i.v.
[2] = test system: NMDA-induced tonic convulsions; assay: NMDA test (40 mg/kg i.v.), protection against tonic convulsions (antiepileptic efficacy); assay type: in vivo, male NMRI mice; conditions: Mus musculus, po, NMDA 40 mg/kg i.v.
Description: In order to determine the neuroprotective and anticonvulsive activity of the compounds in accordance with the invention of the general formula I, two slightly different methods were employed as follows: […]
1. In order to determine the neuroprotective efficacy NMDA at a rate of 25 mg/kg/10 ml was administered intravenously to male NMRI mice with a body weight of 20 to 25 g. As a consequence of this application the animals suffer clonic and partly tonic convulsions, which lead to death. As a criterion for the efficacy of the investigated compounds prevention of death is used.
2. In order to ascertain the antiepileptic efficacy the same method was utilized with an NMDA dosage of 40 mg/kg/10 ml i.v. This higher NMDA dosage led in the case of all animals to the occurrence of tonic convulsions.
All animals used in the investigations had free access to food and water prior to the experiments. The test and reference substances were all administered as a suspension in 0.2% agar or water, partly by the intermediary of solution promoters such as for instance PEG-400, perorally using an esophageal probe. Control animals received the same volumes of the solvent with optional solution promoters. One hour after the application of the substance NMDA was administered intravenously and the animals observed for the occurrence of convulsions.
In table 2 the results of the tests (NMDA 40 mg i.v.) performed in accordance with method 2 are compiled with dosages of 5-25 mg of the compounds in accordance with the invention per kg of body weight in comparison with known anticonvulsants and antiepileptics. As a percentage efficacy the percentage of animals is used which in the test were protected against the occurrence of tonic convulsions.
The determination of the ED50 values was performed in accordance with the method described in Lichtfield and Wilcoxon, J. Pharmacol. exp. Therapeut. 96, 99 (1949) in each case with 4 to 5 groups of 10 animals per dosage rate.

[3] = test system: ovalbumin-induced anaphylactic paw edema; assay: Passive rat paw anaphylaxy (inhibition of edema volume; antiallergic and anti-inflammatory); assay type: in vivo, male Sprague-Dawley rats; conditions: Rattus norvegicus, po; 25 mg/kg p.o. 1 h before test; read-out: Protective action (percentage inhibition of edema volume)
Description: The determination of the antiallergic and anti-inflammatory properties of the compounds in accordance with the invention was using a passive rat paw anaphylaxy model.
Male Sprague-Dawley rats were utilized for all tests. The animals were kept under standardized environmental conditions with free access to food and water. For sensitization to the antigen 100 μl of a mouse antiserum to ovalbumin was injected sublplantarly into the left rear paw. […] The opposite paw was for control injected subplantarly only with 100 μl of the solvent (sterile physiological NaCl solution). Overnight the investigated animals were deprived of food but had water ad lib.
Per group in all tests between 6 and 8 animals were used. One hour later the anaphylactic reaction was caused by the intravenous injection of 10 mg/10 ml/kg ovalbumin in physiological NaCl solution. […] The edema volume was calculated from the difference between the values of the two paws. The antiallergic action is in this case expressed as a percentage inhibition of the edema volume of the animals in the test group as compared with control groups undergoing parallel investigation. […] The determination of the ED50 values was performed by linear regression after log transformation of the administered doses, at least three dosage rates being employed.

## COc1cc2oc(=O)c3c(c2cc1OCCCN1CCC(c2ccccc2)CC1)CCC3 [Example 49, 2,3-dihydro-7-methoxy-8-[3-(4-phenyl-1-piperidinyl)propoxy]cyclopenta[c][1]benzopyran-4(1H)-one]
[1]; 1 h, dose protecting 50% of animals against NMDA-induced death one hour after application
  ED50: 6.8 mg/kg
[1]; 25 mg/kg p.o. 1 h before test, read-out: Protective action (percentage of surviving animals)
  responders at 25 mg/kg: 75%
[2]; 1 h, dose protecting 50% of animals against tonic convulsions one hour after application, read-out: ED50
  ED50: 4 mg/kg
[2]; 20 mg/kg p.o. 1 h before test, read-out: Protective action (percentage of animals protected against tonic convulsions)
  responders at 20 mg/kg: 87.5%
[3]
  inhibition in vivo at 25 mg/kg: 47%
